Measured values taken from patent US11707440B2 (priority 2017, dated 2023).
Values joined by “and” are separate entries in the source; they are usually repeats but may differ in a detail not shown here. Identical values can stand only once. “Also recorded” adds a separate entry of the source. Marks after values point to notes of the source that are not given here.

How the values were obtained:
[1] = Maximum solubility of esketamine HCl; settings: room temperature, pH 4.5; factor 1.15
Description: The clinical investigational product is an aqueous solution of the drug substance, esketamine hydrochloride (HCl). This formulation is administered intranasally to patients using a dual nasal spray device, which delivers one spray into each nostril. […] The formulation was stored at 37° C. for stability reasons until dosing.

[2] = test system: female Sprague-Dawley rats, PCG/RSC of the brain; assay: 14-day repeated dose neurotoxicity study, intranasal instillation; settings: for Clinical observation: Abnormal respiration / Clinical observation: Ataxia / Clinical observation: Chromodacryorrhea / Clinical observation: Decreased general activity / Clinical observation: Decubitus / Clinical observation: Increased general activity / Clinical observation: Salivation (out of normal) / Clinical observation: audible respiration / Clinical observation: bradypnoea: 14 days
Description: Esketamine HCl was administered into each nostril of female rats at a volume of 50 μl per nostril either once, twice or thrice daily by intranasal instillation for 14 consecutive days at doses of 0 (vehicle), 18, 36 or 54 mg/day. At each instillation, the second nostril was dosed immediately after the first nostril. The interval between subsequent instillations into both nostrils was 5 minutes when dosed 2 or 3 times per day.
The vehicle control group received 3 subsequent intranasal instillations of the vehicle into both nostrils (50 μL per nostril) with 5-minute intervals for 14 consecutive days.
The positive control group received a single subcutaneous injection of (+)MK-801 at 48 hours prior to the necropsy of the vehicle control and esketamine HCl-treated animals.
Each group of main study animals consisted of 12 female rats. Four satellite animals were added to the esketamine HCl-dosed groups of main study animals for TK purposes. The plasma exposure to esketamine was measured in these animals on the first and the last day of dosing at various time points up to and including 24 hours after the first instillation.
Due to logistic constraints associated with the whole body perfusion procedure of the animals at necropsy, a staggered start was applied to the study. Consequently, all 5 groups of main study animals were divided into three subgroups of 4 animals each. For each of these subgroups treatment started on a different day. The perfusion procedure is the is the same as described for the single dose study.
All vehicle- and esketamine HCl-treated animals were sacrificed at 48 hours after the last instillation. […] The brain tissue of the vehicle control-, positive control- and esketamine HCl-treated rats were processed at the same time and handled in the same way in batches of 4 animals per group.
(§1) Furthermore, clinical observations were recorded for the esketamine HCl-dosed rats on the day of dosing at 0 till 5 minutes, 15 and 30 minutes, and at 1, 2, 4, 6 hours post-dose, at the end of the working day and at 24 hours after the last instillation in the single dose study and on the first day of dosing, after one week and towards the end of the dosing period in the repeated dose study. Body weight and body weight gain were measured daily. Food consumption was measured weekly in the repeated dose study.
(§2) On the day of terminal kill, a complete physical examination was performed on the rats in fasted condition and body weight was recorded. The surviving animals were anaesthetized by inhalation of an isoflurane (IsoFlo® Zoetis, Belgium)/oxygen mixture and killed by exsanguination via the carotid artery. […] All terminally killed rats or those killed pre-terminally were perfused with 4% paraformaldehyde in the single dose study and with glutaraldehyde 3% in potassium phosphate buffer 0.09 M with 1.4% sucrose in the repeated dose study.
(§3) Brain tissue was sampled and processed routinely. The trimmed and embedded tissue was sectioned and stained with hematoxylin-eosin (HE). Histoprocessing and staining were carried out in three batches of 4 animals per group (each batch thus containing 4 animals from vehicle control-, positive control- and the three esketamine HCl-treated groups). In the single dose study duplicate brain sections were stained with Fluoro-Jade (FJ).
All tissues showing gross abnormalities were examined […]. Histopathological examination was performed on 7 levels of brain tissue according to Bolon (2013. Toxicol. Pathol. 41(7), 1028-1048) from the vehicle control-, positive control-, and high dose esketamine HCl-treated groups in the single dose study, and in all groups in the repeated dose study.

[3] = test system: female Sprague-Dawley rats, PCG/RSC of the brain; assay: Single dose neurotoxicity study, intranasal instillation; settings: for Clinical observation: Abnormal respiration / Clinical observation: Ataxia / Clinical observation: Catalepsy / Clinical observation: Chromodacryorrhea / Clinical observation: Decreased general activity / Clinical observation: Decubitus / Clinical observation: Increased general activity / Clinical observation: Narrowed palpebral fissure / Clinical observation: Piloerection / Clinical observation: Salivation (out of normal) / Clinical observation: audible respiration / Clinical observation: bradypnoea: single dose intranasal
Description: Esketamine HCl was instilled intranasally at doses of 0 (vehicle), 36, 54 or 72 mg (expressed as esketamine base) to female rats on a single day. The dose levels were obtained by 2, 3 or 4 subsequent intranasal instillations, respectively, into both nostrils at a volume of 50 μL per nostril. At each instillation, the second nostril was dosed immediately after the first nostril. The interval between subsequent instillations into both nostrils was 5 minutes.
The vehicle control group received 4 subsequent intranasal instillations of the vehicle into both nostrils (50 μL per nostril) with 5-minute intervals.
The injection volume was 5 mL/kg.
The vehicle- and the 36 and 54 mg-dosed groups consisted of 24 animals per group, while the 72 mg-dosed and positive control groups involved 30 animals per group. Four satellite animals were added to the esketamine HCl-dosed groups of main study animals for toxicokinetic (TK) purposes. In these animals the plasma exposure to esketamine was measured on the day of dosing at various time points up to and including 24 hours after the first instillation.
Prior to the perfusion, rats were anesthetized with isoflurane. After injection of 0.1 ml heparin, the blood of the rat was flushed out with a physiological saline solution by intraarterial insertion of a needle in the abdominal aorta. Thereafter the rat was perfused with glutaraldehyde 3% in potassium phosphate 0.09M and 1.4% sucrose. Due to logistic constraints at maximum 30 animals could undergo the whole-body perfusion procedure on a given day. Therefore, a staggered start of treatment was applied to all 5 groups of main study animals. Consequently, subgroups of 4 main study animals of the vehicle- and 36 and 54 mg-dosed groups, and 5 main study animals of the 72 mg-dosed and positive control groups, were dosed on 6 consecutive days, respectively.
The vehicle control, positive control, and esketamine HCl-dosed animals were sacrificed at either 48 hours (i.e., the first 12 or 15 rats per group) or 96 hours after the dose administration time (i.e., the last 12 or 15 rats per group). The brain tissue of the vehicle control-, positive control- and esketamine HCl-treated rats were processed at the same time and handled in the same way in batches of 4 or 5 animals per group.
as §1, §2, §3
All tissues showing gross abnormalities were examined macroscopically.

For `CN[C@]1(c2ccccc2Cl)CCCCC1=O.Cl` [esketamine HCl, (S)-2-(2-chlorophenyl)-2-(methylamino)cyclohexanone hydrochloride], the “Maximum solubility expressed as base” value [1] was 180 mg esketamine base/mL, the “Clinical observation: Abnormal respiration” value ([2]; 18 mg/day intranasal) was 2/12 and the “Clinical observation: Ataxia” value ([2]; 18 mg/day intranasal) was 12/12***. For the same compound, the “Clinical observation: Chromodacryorrhea” value ([2]; 18 mg/day intranasal) was 0/12, the “Clinical observation: Decreased general activity” value ([2]; 18 mg/day intranasal) was 5/12 and the “Clinical observation: Decubitus” value ([2]; 18 mg/day intranasal) was 0/12. For the same compound, the “Clinical observation: Increased general activity” value ([2]; 18 mg/day intranasal) was 12/12***, the “Clinical observation: Salivation (out of normal)” value (“Clinical observation: Salivation” below) ([2]; 18 mg/day intranasal) was 12/12*** and the “Clinical observation: audible respiration” value ([2]; 18 mg/day intranasal) was 2/12. The “Clinical observation: bradypnoea” value ([2]; 18 mg/day intranasal) was 0/12, the “Clinical observation: Abnormal respiration” value ([2]; 36 mg/day intranasal) was 11/12*** and the “Clinical observation: Ataxia” value ([2]; 36 mg/day intranasal) was 12/12***. The “Clinical observation: Chromodacryorrhea” value ([2]; 36 mg/day intranasal) was 0/12, the “Clinical observation: Decreased general activity” value ([2]; 36 mg/day intranasal) was 12/12*** and the “Clinical observation: Decubitus” value ([2]; 36 mg/day intranasal) was 2/12. For the same compound, the “Clinical observation: Increased general activity” value ([2]; 36 mg/day intranasal) was 12/12***, the “Clinical observation: Salivation” value ([2]; 36 mg/day intranasal) was 12/12*** and the “Clinical observation: audible respiration” value ([2]; 36 mg/day intranasal) was 6/12**. The “Clinical observation: bradypnoea” value ([2]; 36 mg/day intranasal) was 11/12***, the “Clinical observation: Abnormal respiration” value ([2]; 54 mg/day intranasal) was 12/12*** and the “Clinical observation: Ataxia” value ([2]; 54 mg/day intranasal) was 12/12***. The “Clinical observation: Chromodacryorrhea” value ([2]; 54 mg/day intranasal) was 0/12, the “Clinical observation: Decreased general activity” value ([2]; 54 mg/day intranasal) was 12/12*** and the “Clinical observation: Decubitus” value ([2]; 54 mg/day intranasal) was 8/12***. For the same compound, the “Clinical observation: Increased general activity” value ([2]; 54 mg/day intranasal) was 12/12***, the “Clinical observation: Salivation” value ([2]; 54 mg/day intranasal) was 12/12*** and the “Clinical observation: audible respiration” value ([2]; 54 mg/day intranasal) was 6/12**. The “Clinical observation: bradypnoea” value ([2]; 54 mg/day intranasal) was 12/12***, the Mortality ([2]; up to 54 mg/day for 14 days) was “No test article related mortality occurred” and the “Brain histopathology (neuronal necrosis, Olney lesions)” value ([2]; up to 54 mg/day, 48 hours after the last instillation, hydrochloride) was “no morphological evidence of neuronal degeneration; also recorded: no histopathological lesions were noted; also recorded: No histopathological lesions were found; also recorded: absence of neuronal necrosis”. For the same compound, the “Duration of severely decreased activity with decubitus, bradypnea, ptosis and catalepsy (anesthesia)” value ([3]; 36 mg) was 15 to 30 min, the “Clinical observation: Abnormal respiration” value ([3]; 36 mg) was 22/24*** and the “Clinical observation: Ataxia” value ([3]; 36 mg) was 24/24***. For the same compound, the “Clinical observation: Catalepsy” value ([3]; 36 mg) was 20/24***, the “Clinical observation: Chromodacryorrhea” value ([3]; 36 mg) was 0/24 and the “Clinical observation: Decreased general activity” value ([3]; 36 mg) was 23/24***. For the same compound, the “Clinical observation: Decubitus” value ([3]; 36 mg) was 23/24***, the “Clinical observation: Increased general activity” value ([3]; 36 mg) was 24/24*** and the “Clinical observation: Narrowed palpebral fissure” value ([3]; 36 mg) was 7/24**. For the same compound, the “Clinical observation: Piloerection” value ([3]; 36 mg) was 0/24, the “Clinical observation: Salivation” value ([3]; 36 mg) was 23/24*** and the “Clinical observation: audible respiration” value ([3]; 36 mg) was 10/24***. The “Clinical observation: bradypnoea” value ([3]; 36 mg) was 22/24***, the “Clinical observation: Abnormal respiration” value ([3]; 54 mg) was 22/24*** and the “Clinical observation: Ataxia” value ([3]; 54 mg) was 24/24***. The “Clinical observation: Catalepsy” value ([3]; 54 mg) was 23/24***, the “Clinical observation: Chromodacryorrhea” value ([3]; 54 mg) was 0/24 and the “Clinical observation: Decreased general activity” value ([3]; 54 mg) was 23/24***. The “Clinical observation: Decubitus” value ([3]; 54 mg) was 23/24***, the “Clinical observation: Increased general activity” value ([3]; 54 mg) was 24/24*** and the “Clinical observation: Narrowed palpebral fissure” value ([3]; 54 mg) was 10/24***. The “Clinical observation: Piloerection” value ([3]; 54 mg) was 0/24, the “Clinical observation: Salivation” value ([3]; 54 mg) was 24/24*** and the “Clinical observation: audible respiration” value ([3]; 54 mg) was 3/24. For the same compound, the “Clinical observation: bradypnoea” value ([3]; 54 mg) was 21/24***, the “Duration of ataxia (and hyperactivity) after the decrease in activity subsided” value ([3]; 54 mg, hydrochloride) was 1.5 to 3 h and 1 to 3 h and the “Duration of severely decreased activity with decubitus, bradypnea, ptosis and catalepsy (anesthesia)” value ([3]; 54 mg, hydrochloride) was 30 minutes to one hour and 30 minutes to an hour. The “Duration of ataxia (and hyperactivity) after the decrease in activity subsided” value ([3]; 72 mg) was “up to 3 hours or longer”, the “Clinical observation: Abnormal respiration” value ([3]; 72 mg) was 30/30*** and the “Clinical observation: Catalepsy” value ([3]; 72 mg) was 30/30***. For the same compound, the “Clinical observation: Chromodacryorrhea” value ([3]; 72 mg) was 0/30, the “Clinical observation: Decreased general activity” value ([3]; 72 mg) was 30/30*** and the “Clinical observation: Decubitus” value ([3]; 72 mg) was 30/30***. For the same compound, the “Clinical observation: Increased general activity” value ([3]; 72 mg) was 29/30***, the “Clinical observation: Narrowed palpebral fissure” value ([3]; 72 mg) was 22/30*** and the “Clinical observation: Piloerection” value ([3]; 72 mg) was 0/30. The “Clinical observation: Salivation” value ([3]; 72 mg) was 29/30***, the “Clinical observation: audible respiration” value ([3]; 72 mg) was 2/30 and the “Clinical observation: bradypnoea” value ([3]; 72 mg) was 30/30***. For the same compound, the Mortality ([3]; single dose 72 mg, within 30 minutes after 4 instillations) was “two main study animals and two satellite TK animals died”, the Mortality ([3]; single dose up to 54 mg) was “No test article related mortality” and the “Brain histopathology (neuronal necrosis, Olney lesions)” value ([3]; single dose up to 72 mg, 48 and 96 hours post-dose, hydrochloride) was “no morphological evidence of neuronal degeneration; also recorded: histopathological lesions were absent; also recorded: No signs of neuronal necrosis; also recorded: no neuropathological lesions were observed”.
